Results as given in patent publication US5374765A, “Method for extracting an amino acid ester from a hydrous solution of a mineral acid salt thereof” (priority 1990, dated 1994).

Experiment: Extraction of amino acid ester from aqueous mineral acid salt solution into 1,2-dichloroethane at constant pH (Table 1)
Description: 0.1 mole of a mineral acid salt of an amino acid ester, shown in Table 1 was dissolved or suspended in 30 g of water. Thereto was added 60 g of 1,2-dichloroethane. While the mixture was kept at 20°-25° C. and stirred, a 20% water solution of sodium hydroxide was dropwise added thereto in 0.5 hour, and then stirring and extraction were carried out for 0.5 hour while the pH of the aqueous layer was kept at a constant level in the range of 6.5-8.5. The organic layer was separated from the aqueous layer. Then, there were measured percent extraction of fed amino acid ester in organic layer, percent remaining of said ester in aqueous layer, and percent hydrolysis of said ester in aqueous layer (the hydrolyzed ester remains in the aqueous layer as an amino acid).

[1] = pH 6.5, 20-25 °C, 1,2-dichloroethane
[2] = pH 7.5, 20-25 °C, 1,2-dichloroethane
[3] = pH 8.5, 20-25 °C, 1,2-dichloroethane

COC(=O)[C@@H](N)CO.Cl [Methyl L-serinate hydrochloride]
Ester in aqueous layer, percent hydrolysis [1]: 0% | Ester in aqueous layer, percent remaining [1]: 14% | Percent extraction of ester in organic layer [1]: 86% | Ester in aqueous layer, percent hydrolysis [2]: 0% | Ester in aqueous layer, percent remaining [2]: 5% | Percent extraction of ester in organic layer [2]: 95% | Ester in aqueous layer, percent hydrolysis [3]: 4% | Ester in aqueous layer, percent remaining [3]: 2% | Percent extraction of ester in organic layer [3]: 94%

CCOC(=O)[C@@H](N)Cc1ccccc1.Cl [Ethyl L-phenylalaninate hydrochloride]
Ester in aqueous layer, percent hydrolysis [1]: 0% | Ester in aqueous layer, percent remaining [1]: 8% | Percent extraction of ester in organic layer [1]: 92% | Ester in aqueous layer, percent hydrolysis [2]: 0% | Ester in aqueous layer, percent remaining [2]: 2% | Percent extraction of ester in organic layer [2]: 98% | Ester in aqueous layer, percent hydrolysis [3]: 3% | Ester in aqueous layer, percent remaining [3]: 1% | Percent extraction of ester in organic layer [3]: 96%

Methyl L-aspartate hydrochloride
Ester in aqueous layer, percent remaining (pH 6.5): 12% | Percent extraction of ester in organic layer [1]: 88% | Ester in aqueous layer, percent remaining (pH 7.5): 3% | Percent extraction of ester in organic layer [2]: 96% | Ester in aqueous layer, percent remaining (pH 8.5): 1% | Percent extraction of ester in organic layer [3]: 96% | Ester in aqueous layer, percent hydrolysis (water/1,2-dichloroethane, pH 6.5): 0% | Ester in aqueous layer, percent hydrolysis (water/1,2-dichloroethane, pH 7.5): 1% | Ester in aqueous layer, percent hydrolysis (water/1,2-dichloroethane, pH 8.5): 3%

Cl.N[C@@H](Cc1ccccc1)C(=O)OCc1ccccc1 [Benzyl L-phenylalaninate hydrochloride]
Ester in aqueous layer, percent hydrolysis [1]: 0% | Ester in aqueous layer, percent remaining [1]: 6% | Percent extraction of ester in organic layer [1]: 94% | Ester in aqueous layer, percent hydrolysis [2]: 0% | Ester in aqueous layer, percent remaining [2]: 1% | Percent extraction of ester in organic layer [2]: 99% | Ester in aqueous layer, percent remaining [3]: 1% | Percent extraction of ester in organic layer [3]: 97%

COC(=O)CCCN.Cl [Methyl γ-aminobutyrate hydrochloride]
Ester in aqueous layer, percent hydrolysis [1]: 0% | Ester in aqueous layer, percent remaining [1]: 11% | Percent extraction of ester in organic layer [1]: 89% | Ester in aqueous layer, percent hydrolysis [2]: 0% | Ester in aqueous layer, percent remaining [2]: 4% | Percent extraction of ester in organic layer [2]: 96% | Ester in aqueous layer, percent hydrolysis [3]: 3% | Ester in aqueous layer, percent remaining [3]: 2% | Percent extraction of ester in organic layer [3]: 95%

Cl.N[C@@H](Cc1ccccc1)C(=O)Oc1ccccc1 [Phenyl L-phenylalaninate hydrochloride]
Ester in aqueous layer, percent hydrolysis [1]: 0% | Ester in aqueous layer, percent remaining [1]: 6% | Percent extraction of ester in organic layer [1]: 94% | Ester in aqueous layer, percent hydrolysis [2]: 2% | Ester in aqueous layer, percent remaining [2]: 1% | Percent extraction of ester in organic layer [2]: 97% | Ester in aqueous layer, percent hydrolysis [3]: 7% | Ester in aqueous layer, percent remaining [3]: 1% | Percent extraction of ester in organic layer [3]: 92%

CCOC(=O)c1ccccc1N.Cl [Ethyl o-aminobenzoate hydrochloride]
Ester in aqueous layer, percent hydrolysis [1]: 0% | Ester in aqueous layer, percent remaining [1]: 6% | Percent extraction of ester in organic layer [1]: 94% | Ester in aqueous layer, percent hydrolysis [2]: 1% | Ester in aqueous layer, percent remaining [2]: 2% | Percent extraction of ester in organic layer [2]: 97% | Ester in aqueous layer, percent hydrolysis [3]: 3% | Ester in aqueous layer, percent remaining [3]: 1% | Percent extraction of ester in organic layer [3]: 96%

COC(=O)[C@@H](N)CCCCN.Cl [Methyl L-lysinate hydrochloride]
Ester in aqueous layer, percent hydrolysis [1]: 0% | Ester in aqueous layer, percent remaining [1]: 18% | Percent extraction of ester in organic layer [1]: 82% | Ester in aqueous layer, percent hydrolysis [2]: 0% | Ester in aqueous layer, percent remaining [2]: 9% | Percent extraction of ester in organic layer [2]: 91% | Ester in aqueous layer, percent hydrolysis [3]: 3% | Ester in aqueous layer, percent remaining [3]: 3% | Percent extraction of ester in organic layer [3]: 94%
